Read-outs that look alike come from different tables or passages of the source. Each block holds one molecule with its values, some of them ahead of it.
Assays:
[1] = cited from earlier work
[2] = tested on: Wnt/β-catenin signaling pathway; assay: Western-Blot of Wnt/β-catenin pathway proteins and P-gp in Caco-2 cells treated with FzM1.8; type: cell-based, human
Procedure: Caco-2 cells were purchased from the Chinese Academy of Sciences (Shanghai, China) and maintained in MEM/EBSS medium (Hyclone, UT, USA) supplemented with 10% fetal bovine serum (Sofar, Beijing, China), 1% penicillin–streptomycin liquid (Solarbio, Beijing, China), and 1% nonessential amino acids (Gibco, New York, NY, USA) in a humidified 5% CO2 atmosphere at 37 °C. The Caco-2 cells were seeded in a T-12.5 flask (2 × 10^4 cells/cm^2) and cultured for 21 days under normal gravity. The T-12.5 flask was filled with culture medium while preventing bubble formation and then exposed to SMG using random speed 3D clinostat (National Space Science Center, Beijing, China) for 12, 24, 48, and 72 h. The Caco-2 cells in the CON group were cultured under normal gravity in the same CO2 incubator.
(§1) FzM1.8 and IWP-O1 (Wnt/β-catenin signaling pathway-specific agonist and inhibitor, respectively) were dissolved in dimethyl sulfoxide (DMSO) and diluted with culture medium to obtain the desired concentrations. The final concentration of DMSO was 0.1%. FzM1.8 (2 μM) was added to the Caco-2 cells in the CON + FzM1.8 and SMG + FzM1.8 groups. IWP-O1 (1 nM) was added to the hCMEC/D3 cells in the CON + IWPO-1 and SMG + IWPO-1 groups. The cells in the SMG, SMG + FzM1.8, or SMG + IWPO-1 group were then exposed to SMG for 48 h.
(§2) Total proteins in the rat ileum mucosa and brain and Caco-2 and hCMEC/D3 cells were extracted using radio immunoprecipitation assay buffer containing protease inhibitors and protein phosphatase inhibitors. The supernatant was collected after centrifugation (12,000× g, 4 °C, and 10 min). The protein concentration was tested using Coomassie brilliant blue staining. The supernatant was mixed with 4× protein loading buffer containing dithiothreitol (Solarbio, Beijing, China) and […] in a boiling water bath for 10 min. […] The gray value of each band was collected using Image Lab^TM Software (version 3.0, Bio-Rad, Hercules, CA, USA), and the relative expression levels of proteins were expressed as the ratio of the gray value of the target band to the total proteins in the same lane.

[3] = tested on: P-gp; assay: Intracellular Rho123 fluorescence intensity in hCMEC/D3 cells (P-gp efflux function); type: cell-based, human; settings: Rho123 2 μM for 0.5 h
Procedure: The cells were then washed with phosphate buffer saline (PBS) solution five times (2 mL each time) and treated with 2 mL of 0.1% Triton X-100 for 15 min. The cell solution was transferred to a black 96-well plate (Corning, NY, USA) with six wells in each group and 200 μL in each well after brief centrifugation. The fluorescence intensity of each well was detected using a microplate reader (BioTek, Thorold, ON, Canada). The excitation/emission wavelength of Rho123 was 485/535 nm. After 24, 48, or 72 h of SMG treatment, the hCMEC/D3 cells were treated with 2 mL of medium containing Rho123 (2 μM) for 0.5 h. Subsequent operations were performed in the same way as for Caco-2 cells.

[4] = tested on: P-gp; assay: Ratio of Rho123 concentration in rat brain and blood (P-gp efflux function in rat brain); type: in vivo; settings: Rho123 0.5 mg/kg tail vein, 15 min post-injection
Procedure: After 45 min, the tail veins of all rats were injected with Rho123 (0.5 mg/kg, Solarbio, Beijing, China). At 15 min post-injection, all rats were anesthetized with chloral hydrate (350 mg/kg), and the blood was collected from the heart. After being subjected to transcardiac perfusion using the stroke-physiological saline solution from the heart, the brain samples of all rats were collected. In summary, 0.1 g of brain samples were homogenized with 0.4 mL of normal saline to obtain brain homogenate. Blank plasma and brain samples were collected from rats without a Rho123 injection and used to prepare Rho123 standard curve samples. The concentration of Rho123 in plasma and brain homogenate from all rats was detected by fluorescence intensity (λ excitation/λ emission = 485/535) using a microplate reader (BioTek, Thorold, ON, Canada). The Kp brain of Rho123 was used to evaluate P-gp efflux function.

[5] = tested on: Wnt/β-catenin signaling pathway; assay: Western-Blot of Wnt/β-catenin pathway proteins and P-gp in hCMEC/D3 cells treated with IWP-O1; type: cell-based, human
Procedure: The hCMEC/D3 cells were purchased from iCell Bioscience Inc. (Shanghai, China) and cultured in RPMI 1640 medium containing 1% penicillin–streptomycin liquid (Solarbio, Beijing, China) and 10% fetal bovine serum (Tianhang, Zhejiang, China) in the same environment as that of Caco-2 cells. The hCMEC/D3 cells were seeded at a density of 6 × 10^4 cells/cm^2 and cultured for 2 days under normal gravity. The flasks were then filled with culture medium and exposed to SMG using random speed 3D clinostat for 24, 48, and 72 h. The hCMEC/D3 cells in the CON group were cultured under normal gravity in the same CO2 incubator.
as §1, §2

[6] = tested on: rat ileum; assay: Rat single-pass intestinal perfusion (SPIP) of acetaminophen; type: in vivo; settings: for Ka / Peff / Concentration: SPIP of ileum; for Concentration: perfusate 2.5 mg/mL AP
Procedure: At 1 h post-oral administration, all rats were anesthetized with urethane (1.75 g/kg) and placed in a supine position. Approximately 10 cm of ileum was separated from the intestinal segments. Tubes were carefully inserted at both ends of this segment and ligated with a sterile surgical line. The segment was rinsed with 37 °C Krebs–Ringer’s (KR) solution, balanced with KR solution (containing 2.5 mg/mL AP) at a flow rate of 0.2 mL/min for 15 min, and continuously perfused with KR solution (containing 2.5 mg/mL AP). The flow rate was set as 0.2 mL/min. The outflow perfusate was collected in a pre-weighed tube, which was changed quickly every 15 min and weighed. Six tubes of this fluid were collected for each rat. The perfusion solution and outflow perfusate were diluted in methanol–water (1:9, v:v) and analyzed using HPLC.
(§3) HPLC was performed on a Shimadzu LC-20AT HPLC system equipped with a UV detector (Shimadzu, Kyoto, Japan). Sample separation was conducted in a C18 column (5 μm, 4.6 × 150 mm). The mobile phases were methanol (A) and water (B) (1:9, v:v), and the flow rate was 1 mL/min. The volume of each sample injected into the HPLC system was 10 μL. The column temperature was maintained at 25 °C, and the detection wavelength was 275 nm. Ferulic acid (final concentration of 100 μg/mL) was used as an IS.

[7] = set-up: method as in earlier work; settings: 21 and 28 days of SMG treatment in rats; cited from earlier work
[8] = Rat brain distribution of acetaminophen (Kp brain); type: in vivo; settings: AP 1.2 g/kg oral, post-oral administration
Procedure: After 7 or 21 days of tail suspension, all rats were orally administered AP (1.2 g/kg). […] Rat brains were rapidly removed after perfusion with prechilled saline from rat hearts. Then, 0.1 mL of plasma from each rat was used to precipitate proteins with 300 μL of methanol. Approximately 0.1 g of the brain tissue of each rat was homogenized and ultrasonicated in 1 mL of methanol. The supernatant was removed and dried via vacuum centrifugation and reconstituted with methanol for HPLC. The brain distribution of AP was evaluated as the ratio of AP content in brain tissue (μg/g) to that in plasma (μg/mL).
as §3

[9] = 7 days CON + Ver (30 mg/kg oral) rats
[10] = 21 days CON + Ver (30 mg/kg oral) rats

Structure (SMILES): CC(C)Cc1ccc(C(C)C(=O)O)cc1 (stereo not drawn) [ibuprofen]
Absorption in humans under SMG ([1]; in vivo, po): promoted

Structure (SMILES): O=C(Nc1cc(O)cc(C(=O)O)c1)Nc1ccc2ccccc2c1 [FzM1.8]
P-gp expression under SMG (Western-Blot) ([2]; 2 μM before 48 h SMG, vs SMG group): up-regulate
P-gp expression (Western-Blot) ([2]; 2 μM, 48 h, vs CON group): increased
Wnt/β-catenin signaling pathway (Western-Blot) ([2]; 2 μM, 48 h, vs CON group): activated

Structure (SMILES): CC(CN1c2ccccc2Sc2ccccc21)N(C)C (stereo not drawn) [promethazine]
Absorption in humans under SMG ([1]; oral P-gp substrate drugs, humans under SMG): promoted

Increase in fluorescence intensity of intracellular Rho123 ([3]; 48 h SMG vs CON): 13.4%
Increase in fluorescence intensity of intracellular Rho123 ([3]; 72 h SMG vs CON): 16.7%
Increase of ratio of Rho123 concentration in rat brain to that in the blood ([4]; 7 days SMG vs CON): 40.5%
Increase of ratio of Rho123 concentration in rat brain to that in the blood ([4]; 21 days SMG vs CON): 173.8%
Structure (SMILES): COC(=O)c1ccccc1-c1c2ccc(=N)cc-2oc2cc(N)ccc12 [Rho123, rhodamine 123]

Structure (SMILES): O=C(Cn1nnc(-c2ccncc2)c1-c1ccccc1)Nc1ccc(-c2ccccc2)cn1 [IWP-O1]
P-gp expression under SMG (Western-Blot) ([5]; 1 nM before 48 h SMG, vs SMG group): down-regulate
P-gp expression (Western-Blot) ([5]; 1 nM, 48 h, vs CON group): decreased
Wnt/β-catenin signaling pathway (Western-Blot) ([5]; 1 nM, 48 h, vs CON group): inhibited

Ka [6, 9]: 8.93 ± 0.37 * 10^−2 min^−1
Peff [6, 9]: 10.77 ± 0.61 * 10^−3 cm/min
Concentration [6, 9]: 1.516 ± 0.052 mg/mL
Ka ([6]; 7 days CON rats): 7.75 ± 0.11 10^−2 min^−1
Peff ([6]; 7 days CON rats): 8.86 ± 0.16 10^−3 cm/min
Concentration ([6]; 7 days CON rats): 1.684 ± 0.015 mg/mL
Ka ([6]; 7 days SMG rats): 8.55 ± 0.21 ** 10^−2 min^−1
Peff ([6]; 7 days SMG rats): 10.11 ± 0.33 ** 10^−3 cm/min
Concentration ([6]; 7 days SMG rats): 1.571 ± 0.029 mg/mL
Increase of Ka in rat ileum ([6]; 7 days SMG vs CON): 10.3%
Increase of Peff in rat ileum ([6]; 7 days SMG vs CON): 14.1%
Ka [6, 10]: 7.44 ± 0.18 ** 10^−2 min^−1
Peff [6, 10]: 8.41 ± 0.25 ** 10^−3 cm/min
Concentration [6, 10]: 1.727 ± 0.025 mg/mL
Ka ([6]; 21 days CON rats): 5.66 ± 0.19 10^−2 min^−1
Peff ([6]; 21 days CON rats): 6.01 ± 0.23 10^−3 cm/min
Concentration ([6]; 21 days CON rats): 1.965 ± 0.033 mg/mL
Ka ([6]; 21 days SMG rats): 8.76 ± 0.47 ** 10^−2 min^−1
Peff ([6]; 21 days SMG rats): 10.47 ± 0.76 ** 10^−3 cm/min
Concentration ([6]; 21 days SMG rats): 1.54 ± 0.066 mg/mL
Increase of Ka in rat ileum ([6]; 21 days SMG vs CON): 54.8%
Increase of Peff in rat ileum ([6]; 21 days SMG vs CON): 74.2%
Increase of brain-to-plasma concentration ratio (Kp brain) ([8]; 7 days SMG vs CON): approximately 22.0%
Increase of brain-to-plasma concentration ratio (Kp brain) ([8]; 21 days SMG vs CON): 40.7%
Structure (SMILES): CC(=O)Nc1ccc(O)cc1 [AP, acetaminophen]
Absorption under SMG ([1]; 80 days of SMG treatment in humans): promoted
Absorption in astronauts ([1]; two astronauts, mission day 2 compared with before the flight): increased
Absorption under SMG [7]: promoted

From article PMC10049079, “Simulated Microgravity Alters P-Glycoprotein Efflux Function and Expression via the Wnt/β-Catenin Signaling Pathway in Rat Intestine and Brain” (International Journal of Molecular Sciences, 2023)
